Reference: patent US11731976B2, “3-(ethoxydifluoromethyl)-6-(5-fluoro-6-(2,2,2-trifluoroethoxy)pyridin-3-yl)-[1,2,4]triazolo[4,3-a]pyridine as an ion channel modulator” (Praxis Precision Medicines, Inc., priority 2018, dated 2023)

molecular target: T1, human NaV1.6 (hNaV1.6) (Homo sapiens, UniProt Q9UQD0); assay: Modulation of late sodium current (INaL), PatchXpress electrophysiology, HEK-293 cells expressing hNaV1.6; assay type: cell-based; details: HEK293, late current evoked by 300 nM ATX-II, read-out: NaV 1.6 Assay Data: percent inhibition of INaL at hNaV1.6
T1 construct: expressed in transfected cells; host or cells: HEK-293
T1 sequence (Q9UQD0 whole entry): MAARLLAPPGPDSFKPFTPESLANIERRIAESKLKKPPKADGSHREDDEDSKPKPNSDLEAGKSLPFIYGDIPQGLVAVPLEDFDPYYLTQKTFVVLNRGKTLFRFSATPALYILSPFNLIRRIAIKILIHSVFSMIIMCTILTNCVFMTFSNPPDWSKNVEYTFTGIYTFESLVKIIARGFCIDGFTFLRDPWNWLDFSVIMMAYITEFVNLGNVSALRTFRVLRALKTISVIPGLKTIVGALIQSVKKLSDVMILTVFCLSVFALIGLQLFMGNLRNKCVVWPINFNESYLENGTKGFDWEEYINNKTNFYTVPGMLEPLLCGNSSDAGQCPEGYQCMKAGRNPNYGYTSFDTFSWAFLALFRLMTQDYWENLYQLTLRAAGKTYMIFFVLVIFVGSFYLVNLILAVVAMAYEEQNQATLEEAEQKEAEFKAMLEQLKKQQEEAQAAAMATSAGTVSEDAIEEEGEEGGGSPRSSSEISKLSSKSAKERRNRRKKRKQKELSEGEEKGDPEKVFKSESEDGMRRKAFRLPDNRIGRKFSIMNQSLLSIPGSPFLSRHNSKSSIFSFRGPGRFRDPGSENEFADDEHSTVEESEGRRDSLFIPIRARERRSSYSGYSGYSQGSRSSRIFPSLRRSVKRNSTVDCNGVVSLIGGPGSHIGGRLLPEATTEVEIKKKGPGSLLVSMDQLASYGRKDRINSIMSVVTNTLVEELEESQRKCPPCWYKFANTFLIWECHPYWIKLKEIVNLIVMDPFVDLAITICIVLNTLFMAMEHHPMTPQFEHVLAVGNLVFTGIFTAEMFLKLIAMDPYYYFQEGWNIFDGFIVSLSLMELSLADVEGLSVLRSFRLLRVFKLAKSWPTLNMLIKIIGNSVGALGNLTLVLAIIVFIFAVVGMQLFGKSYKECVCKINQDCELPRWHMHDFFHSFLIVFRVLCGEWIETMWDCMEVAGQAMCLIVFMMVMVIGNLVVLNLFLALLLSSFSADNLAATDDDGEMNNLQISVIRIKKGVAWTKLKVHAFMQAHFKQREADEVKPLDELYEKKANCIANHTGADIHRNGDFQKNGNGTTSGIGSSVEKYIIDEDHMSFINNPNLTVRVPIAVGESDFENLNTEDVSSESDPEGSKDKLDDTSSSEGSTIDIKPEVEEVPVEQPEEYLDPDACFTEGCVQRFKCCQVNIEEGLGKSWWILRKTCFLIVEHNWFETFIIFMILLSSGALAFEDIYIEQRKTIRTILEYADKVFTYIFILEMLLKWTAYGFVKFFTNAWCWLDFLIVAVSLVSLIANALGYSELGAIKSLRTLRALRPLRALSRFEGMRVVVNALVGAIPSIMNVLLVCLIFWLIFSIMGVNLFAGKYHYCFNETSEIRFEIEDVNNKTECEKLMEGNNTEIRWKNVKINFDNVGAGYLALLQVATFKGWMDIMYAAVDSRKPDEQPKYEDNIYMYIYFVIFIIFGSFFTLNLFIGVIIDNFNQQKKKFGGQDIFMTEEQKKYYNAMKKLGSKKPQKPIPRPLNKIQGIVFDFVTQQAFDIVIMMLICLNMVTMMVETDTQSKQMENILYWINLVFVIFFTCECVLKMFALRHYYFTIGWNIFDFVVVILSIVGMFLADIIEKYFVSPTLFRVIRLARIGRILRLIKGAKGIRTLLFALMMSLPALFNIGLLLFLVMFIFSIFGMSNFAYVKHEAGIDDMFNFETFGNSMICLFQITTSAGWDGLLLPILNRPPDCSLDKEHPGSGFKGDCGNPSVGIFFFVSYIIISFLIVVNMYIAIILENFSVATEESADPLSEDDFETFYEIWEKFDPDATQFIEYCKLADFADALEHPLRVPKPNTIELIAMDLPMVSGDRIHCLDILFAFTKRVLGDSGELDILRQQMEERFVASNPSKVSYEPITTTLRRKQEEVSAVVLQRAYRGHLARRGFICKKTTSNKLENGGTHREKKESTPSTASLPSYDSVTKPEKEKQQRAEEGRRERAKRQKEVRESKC
Protocol: Functional characterization of exemplary compounds to modulate INaL expressed by the NaV1.6 voltage-gated sodium channel was accomplished using the PatchXpress™ high throughput electrophysiology platform (Molecular Devices, Sunnyvale, Calif.). HEK-293 cells expressing recombinant, human NaV1.6 (hNaV1.6) were grown in DMEM/high-glucose Dulbecco's modified, 10% FBS, 2 mM sodium pyruvate, 10 mM HEPES and 400 μg/mL G418. Cells were grown to 50%-80% confluency prior to harvesting. Trypsinized cells were washed, allowed to recover for 1 hour and then resuspended in extracellular recording solution at a concentration of 1×10^6 cells/ml. The onboard liquid handling facility of the PatchXpress was used for dispensing cells and applying test compounds. NaV late currents were evoked by the application of 300 nM ATX-II. INaL was evoked by depolarizing pulses to 0 mV for 200 ms from a non-inactivating holding potential (e.g., −120 mV) at a frequency of 0.1 Hz. INaL amplitude and stability were determined by analyzing the mean current amplitude over the final 20 ms of the test pulse. Following steady state block with exemplary compounds (e.g., as described herein), a Na+ free solution containing an impermeant cation (e.g., Choline or NDMG) was added to confirm the identify of the sodium current. Percent steady-state inhibition of INaL was calculated as: [(INaL_compound)/(INaL_control)]*100, where INaL_compound and INaL_control represent INaL recorded in the presence or absence of compound, respectively.

| SMILES | inhibition at 1 µM |
| --- | --- |
| CCOC(F)(F)c1nnc2cnc(-c3cnc(OC4CC(F)(F)C4)c(F)c3)cn12 [Compound 77, 6-(6-(3,3-difluorocyclobutoxy)-5-fluoropyridin-3-yl)-3-(ethoxydifluoromethyl)-[1,2,4]triazolo[4,3-a]pyrazine] | > 70% |
| FC1(F)CC(Oc2ccc(-c3cn4c(C(F)(F)OC5CC5)nnc4cn3)cn2)C1 [Compound 78, 3-(cyclopropoxydifluoromethyl)-6-(6-(3,3-difluorocyclobutoxy)pyridin-3-yl)-[1,2,4]triazolo[4,3-a]pyrazine] | > 70% |
| COCc1nnc2ccc(-c3ccc(OC(C)(C)C(F)(F)F)nc3)cn12 [Compound 87, 3-(methoxymethyl)-6-(6-((1,1,1-trifluoro-2-methylpropan-2-yl)oxy)pyridin-3-yl)-[1,2,4]triazolo[4,3-a]pyridine] | 30 to 70% |
| COC(F)(F)c1nnc2cnc(-c3ccc(OC4CC(F)(F)C4)nc3)cn12 [Compound 73, 3-(difluoro(methoxy)methyl)-6-(6-(3,3-difluorocyclobutoxy)pyridin-3-yl)-[1,2,4]triazolo[4,3-a]pyrazine] | > 70% |
| COCc1nnc2cc(C)c(-c3cnc(O[C@@H](C)C(F)(F)F)c(F)c3)nn12 [Compound 70, 6-[5-fluoro-6-[(1S)-2,2,2-trifluoro-1-methyl-ethoxy]-3-pyridyl]-3-(methoxymethyl)-7-methyl-[1,2,4]triazolo[4,3-b]pyridazine] | < 30% |
| CCOC(F)(F)c1nnc2cnc(-c3cnc(O[C@@H](C)C(F)(F)F)c(F)c3)c(C)n12 [Compound 67, 3-[ethoxy(difluoro)methyl]-6-[5-fluoro-6-[(1S)-2,2,2-trifluoro-1-methyl-ethoxy]-3-pyridyl]-5-methyl-[1,2,4]triazolo[4,3-a]pyrazine] | > 70% |
| CCOC(F)(F)c1nnc2cnc(-c3ccc(OC(C)(C)C(F)(F)F)nc3)cn12 [Compound 88, 3-(ethoxydifluoromethyl)-6-(6-((1,1,1-trifluoro-2-methylpropan-2-yl)oxy)pyridin-3-yl)-[1,2,4]triazolo[4,3-a]pyrazine] | > 70% |
| CCOC(F)(F)c1nnc2cnc(-c3cnc(O[C@H](C)C(F)(F)F)c(F)c3)cn12 [Compound 26, 3-[ethoxy(difluoro)methyl]-6-[5-fluoro-6-[(1R)-2,2,2-trifluoro-1-methyl-ethoxy]-3-pyridyl]-[1,2,4]triazolo[4,3-a]pyrazine] | > 70% |
| CCOCc1nnc2cnc(-c3cnc(O[C@H](C)C(F)(F)F)c(F)c3)cn12 [Compound 52, 3-(ethoxymethyl)-6-[5-fluoro-6-[(1R)-2,2,2-trifluoro-1-methyl-ethoxy]-3-pyridyl]-[1,2,4]triazolo[4,3-a]pyrazine] | 30 to 70% |
| Fc1cc(-c2cn3c(C(F)(F)OC4CC4)nnc3cn2)cnc1OCC(F)(F)F [Compound 75, 3-(cyclopropoxydifluoromethyl)-6-(5-fluoro-6-(2,2,2-trifluoroethoxy)pyridin-3-yl)-[1,2,4]triazolo[4,3-a]pyrazine] | > 70% |
| COC(F)(F)c1nnc2ccc(-c3cnc(OCC(F)(F)F)c(F)c3)cn12 [Compound 30, 3-[difluoro(methoxy)methyl]-6-[5-fluoro-6-(2,2,2-trifluoroethoxy)-3-pyridyl]-[1,2,4]triazolo[4,3-a]pyridine] | > 70% |
| CCOC(F)(F)c1nnc2ccc(-c3cnc(O[C@H](C)C(F)(F)F)c(F)c3)nn12 [Compound 42, 3-[ethoxy(difluoro)methyl]-6-[5-fluoro-6-[(1R)-2,2,2-trifluoro-1-methyl-ethoxy]-3-pyridyl]-[1,2,4]triazolo[4,3-b]pyridazine] | > 70% |
| Fc1cc(-c2ccc3nnc(C(F)(F)OCC4CC4)n3n2)cnc1OCC(F)(F)F [Compound 14, 3-[cyclopropylmethoxy(difluoro)methyl]-6-[5-fluoro-6-(2,2,2-trifluoroethoxy)-3-pyridyl]-[1,2,4]triazolo[4,3-b]pyridazine] | > 70% |
| COC(F)(F)c1nnc2ccc(-c3cnc(OC4(C(F)(F)F)CCC4)c(F)c3)nn12 [Compound 17, 3-[difluoro(methoxy)methyl]-6-[5-fluoro-6-[1-(trifluoromethyl)cyclobutoxy]-3-pyridyl]-[1,2,4]triazolo[4,3-b]pyridazine] | > 70% |
| COCc1nnc2ccc(-c3cnc(OCC(F)(F)F)c(F)c3)cn12 [Compound 29, 6-[5-fluoro-6-(2,2,2-trifluoroethoxy)-3-pyridyl]-3-(methoxymethyl)-[1,2,4]triazolo[4,3-a]pyridine] | < 30% |
| COC(F)(F)c1nnc2cnc(-c3cnc(OCC(F)(F)F)c(F)c3)c(C)n12 [Compound 61, 3-[difluoro(methoxy)methyl]-6-[5-fluoro-6-(2,2,2-trifluoroethoxy)-3-pyridyl]-5-methyl-[1,2,4]triazolo[4,3-a]pyrazine] | 30 to 70% |
| COC(F)(F)c1nnc2ccc(-c3cnc(O[C@@H](C)C(F)(F)F)c(F)c3)cn12 [Compound 7, 3-[difluoro(methoxy)methyl]-6-[5-fluoro-6-[(1S)-2,2,2-trifluoro-1-methyl-ethoxy]-3-pyridyl]-[1,2,4]triazolo[4,3-a]pyridine] | > 70% |
| C[C@H](Oc1ncc(-c2ccc3nnc(C(F)(F)OCC4CC4)n3c2)cc1F)C(F)(F)F [Compound 19, 3-[cyclopropylmethoxy(difluoro)methyl]-6-[5-fluoro-6-[(1S)-2,2,2-trifluoro-1-methyl-ethoxy]-3-pyridyl]-[1,2,4]triazolo[4,3-a]pyridine] | > 70% |
| C[C@@H](Oc1ncc(-c2ccc3nnc(C(F)(F)OC4CC4)n3c2)cc1F)C(F)(F)F [Compound 36, 3-[cyclopropoxy(difluoro)methyl]-6-[5-fluoro-6-[(1R)-2,2,2-trifluoro-1-methyl-ethoxy]-3-pyridyl]-[1,2,4]triazolo[4,3-a]pyridine] | > 70% |
| COC(F)(F)c1nnc2ccc(-c3cnc(O[C@H](C)C(F)(F)F)c(F)c3)cn12 [Compound 8, 3-[difluoro(methoxy)methyl]-6-[5-fluoro-6-[(1R)-2,2,2-trifluoro-1-methyl-ethoxy]-3-pyridyl]-[1,2,4]triazolo[4,3-a]pyridine] | > 70% |
| C[C@@H](Oc1ncc(-c2ccc3nnc(C(F)(F)OCC4CC4)n3c2)cc1F)C(F)(F)F [Compound 25, 3-[cyclopropylmethoxy(difluoro)methyl]-6-[5-fluoro-6-[(1R)-2,2,2-trifluoro-1-methyl-ethoxy]-3-pyridyl]-[1,2,4]triazolo[4,3-a]pyridine] | > 70% |
| COCc1nnc2cc(C)c(-c3cnc(OCC(F)(F)F)c(F)c3)nn12 [Compound 71, 6-[5-fluoro-6-(2,2,2-trifluoroethoxy)-3-pyridyl]-3-(methoxymethyl)-7-methyl-[1,2,4]triazolo[4,3-b]pyridazine] | < 30% |
| COC(F)(F)c1nnc2ccc(-c3cnc(OC4CC(F)(F)C4)c(F)c3)cn12 [Compound 84, 3-(difluoro(methoxy)methyl)-6-(6-(3,3-difluorocyclobutoxy)-5-fluoropyridin-3-yl)-[1,2,4]triazolo[4,3-a]pyridine] | > 70% |
| CCOCc1nnc2cnc(-c3cnc(O[C@@H](C)C(F)(F)F)c(F)c3)cn12 [Compound 50, 3-(ethoxymethyl)-6-[5-fluoro-6-[(1S)-2,2,2-trifluoro-1-methyl-ethoxy]-3-pyridyl]-[1,2,4]triazolo[4,3-a]pyrazine] | > 70% |
| COC(F)(F)c1nnc2ccc(-c3cnc(OC4(C(F)(F)F)CCC4)c(F)c3)cn12 [Compound 18, 3-[difluoro(methoxy)methyl]-6-[5-fluoro-6-[1-(trifluoromethyl)cyclobutoxy]-3-pyridyl]-[1,2,4]triazolo[4,3-a]pyridine] | > 70% |
| COC(F)(F)c1nnc2ccc(-c3cnc(O[C@H](C)C(F)(F)F)c(F)c3)nn12 [Compound 13, 3-[difluoro(methoxy)methyl]-6-[5-fluoro-6-[(1R)-2,2,2-trifluoro-1-methyl-ethoxy]-3-pyridyl]-[1,2,4]triazolo[4,3-b]pyridazine] | > 70% |
| COCc1nnc2ccc(-c3cnc(OC(C)(C)C(F)(F)F)c(F)c3)nn12 [Compound 27, 6-[5-fluoro-6-(2,2,2-trifluoro-1,1-dimethyl-ethoxy)-3-pyridyl]-3-(methoxymethyl)-[1,2,4]triazolo[4,3-b]pyridazine] | > 70% |
| COC(F)(F)c1nnc2cnc(-c3cnc(OC4CC(F)(F)C4)c(F)c3)cn12 [Compound 76, 3-(difluoro(methoxy)methyl)-6-(6-(3,3-difluorocyclobutoxy)-5-fluoropyridin-3-yl)-[1,2,4]triazolo[4,3-a]pyrazine] | > 70% |
| COCc1nnc2cnc(-c3cnc(O[C@@H](C)C(F)(F)F)c(F)c3)cn12 [Compound 38, 6-[5-fluoro-6-[(1S)-2,2,2-trifluoro-1-methyl-ethoxy]-3-pyridyl]-3-(methoxymethyl)-[1,2,4]triazolo[4,3-a]pyrazine] | 30 to 70% |
